We go through 1 molecule from PMC3308197 (Journal of Medicinal Chemistry, 2012).

For this data set the following is noted: from measured plasma protein binding in vitro of 92%.

The molecule `Cc1cc(-c2nnc(N)nc2-c2ccccc2)cc(C(F)(F)F)n1` [Compound 4k, 6-[2-Methyl-6-(trifluoromethyl)pyridin-4-yl]-5-phenyl-1,2,4-triazin-3-amine] showed an unbound plasma fraction of 8%.
